Holding throughout (format): cell-based, human
The subject of one test is differentiating hEBs. The test can be described thus: NPBSC derivation from EBs with CHIR and/or PMA. Particulars: EBs treated with the indicated small molecules; morphology, neural markers. How it is done: For generation of NPBSCs from pluripotent stem cells, colonies were detached from the MEFs three to four days after splitting, using 2 mg/ml collagenase IV (Invitrogen). Colony pieces were collected by sedimentation and resuspended in hESC medium (without FGF2) supplemented with 10 μM SB-431542 (Ascent Scientific), 1 μM dorsomorphin (Tocris) for neural induction, as well as 3 μM CHIR 99021 (Axon Medchem), 0.5 μM PMA (Alexis) and cultured in petri dishes. Medium was replaced on day two by N2B27 supplemented with the same small molecule supplements. N2B27 consisted of DMEM-F12 (Invitrogen)/Neurobasal (Invitrogen) 50:50 with 1:200 N2 supplement (Invitrogen), 1:100 B27 supplement lacking vitamin A (Invitrogen) with 1% Penicillin/Streptomycin/Glutamine (PAA). On day four, SB-431542 and dorsomorphin were withdrawn and 150 μM Ascorbic Acid (AA; Sigma) was added to the medium. […] BD Biosciences) 12 well plates at a density of about ten to fifteen per well in NPBSC expansion medium (N2B27 with CHIR, PMA and AA). For coating, Matrigel was diluted to a final dilution of 1:100 in Knockout DMEM (Invitrogen) prior to coat 500 μl per well of a 12 well plate over night. Coated plates were wrapped with Parafilm and kept in the fridge for up to one month. The first split was performed at a 1:5 to 1:10 ratio on day 2 to 4 after plating. All the remaining splitting ratios were 1:10. […]

Test [1] has as its system NPBSCs. Description: Dorsoventral patterning of NPBSCs by CHIR and PMA (qRT-PCR, immunostaining). How it is done:
Total RNA was isolated from cultured cells using RNeasy columns (Qiagen), according to manufacturer instructions, including an on-column DNase digest. Isolated RNA was reverse-transcribed using M-MLV Reverse Transcriptase (USB) with oligo-[…] primers (Metabion) for 1 h at 42° C. qRT-PCR was performed on an Applied Biosystems 7500 Real-Time PCR system with SYBR green PCR master mix (ABI) and 56 ng of original RNA equivalents per 20 μl PCR reaction. Cycling conditions were 40 cycles of 15 s, 95° C./60 s 60° C. Relative expression levels were calculated using the […] method, normalized to biological reference samples and using GAPDH and ACTB as housekeeping genes. Next, we sought to determine if NPBSCs remain competent for WNT and SHH mediated patterning of neural fate commitment. […] SHH signaling opposes dorsal neural fates and specifies ventral fates (Ulloa and Briscoe, 2007). […] Therefore, we conclude that NPBSCs are receptive to WNT and SHH induced dorsoventral patterning of neural fate specification. […] As such, the upregulation of these markers by NPBSCs could also be because of assuming a neural plate border and/or neural crest identity. To test this possibility, we assessed the responsiveness of the CNS progenitor marker SOX1 to SHH and WNT signaling. […] The inhibition by CHIR is the same that induced MSX1 and PAX3 upregulation.
(Real-time PCR tracks product formation cycle by cycle.)

Test [2] deals with NPBSCs. Description: Neural rosette formation by NPBSC colonies cultured with FGF2. How it is done:
(§1) For confocal microscopy, cells were plated on Matrigel-coated glass coverslips. Cultures were fixed for 20 minutes with 4% paraformaldehyde (Electron Microscopy Sciences) in PBS (Invitrogen) and washed twice with PBS. Permeabilization and blocking was done in one step using 0.1% Triton X-100 (Sigma Aldrich), 10% fetal calf serum (PAA) and 1% BSA in PBS for 45 minutes. Plates or coverslips were washed once with 0.1% BSA in PBS and the primary antibodies applied overnight at 4° C. in 1% BSA in PBS. The next day, following one washing step with 0.1% BSA in PBS, secondary antibodies were applied for one hour at room temperature in 1% BSA in PBS. Finally, cells were washed three times with 0.1% BSA in PBS-T (0.05% Tween 20), including a Hoechst counterstaining for nuclei in the second washing step. Cells were mounted in Vectashield mounting medium (Vector Labs) and imaged on a Zeiss PALM/Axiovert fluorescence microscope or a Zeiss LSM700 confocal microscope. If necessary, images were merged using ImageJ and Adobe Photoshop.
We tested this by culturing NPBSC colonies in the presence of FGF2, which has previously been reported to induce neural rosette formation by hEBs that have been plated (Zhang et al., 2001). […] For further characterization, we immunostained for ZO-1, which is expressed by neural rosettes but spatially localized to the apical surface (Elkabetz et al., 2008).

Test [3] relates to NPBSCs. The test can be described thus: Directed differentiation of NPBSCs into PNS neurons. How it is done:
For generation of PNS neurons, NPBSCs two days after splitting were switched to N2B27 with only CHIR for two days. Afterward, 10 ng/ml BMP4 (R&D Systems) was added for eight days. Splitting and maturation was performed as described for the generation of motor neurons. For astrocyte and mesenchymal neural crest differentiation, NPBSCs were cultured with DMEM (PAA) with 10% fetal calf serum (PAA) and 1% Pen/Strep/Glutamin (PAA), beginning two days after splitting. Cultures were split twice at a 1:3 ratio when confluent using trypsin (Invitrogen).
as §1
Total RNA was isolated from cultured cells using RNeasy columns (Qiagen), according to manufacturer instructions, including an on-column DNase digest. […] Relative expression levels were calculated using the 2^−2Δ method, normalized to biological reference samples and using GAPDH and ACTB as housekeeping genes. […]

This note sets out measurements from patent US10711244B2, “Mammalian neural plate border stem cells capable of forming neural tube and neural crest cell lineages including central and peripheral neurons” (Max-Planck-Gesellschaft zur Förderung der Wissenschaften …, priority 2012, dated 2020).

`Cc1cnc(-c2cnc(NCCNc3ccc(C#N)cn3)nc2-c2ccc(Cl)cc2Cl)[nH]1` [CHIR, 6-[[2-[[4-(2,4-dichlorophenyl)-5-(5-methyl-1H-imidazol-2-yl)-2-pyrimidinyl]amino]ethyl]amino]-3-pyridinecarbonitrile]: the “outcome of NPBSC derivation from EBs” value in the test on differentiating hEBs is recorded as “produced many non-neural cells”. Also, the SOX1 expression result in the test on NPBSCs [1] (6 days) is given as “inhibited”. Also, the “expression of dorsal neural progenitor markers MSX1 and PAX3” value in the test with NPBSCs [1] (6 days culture) is on record as “upregulated”.
For the molecule “FGF2: basic fibroblast growth factor, a member of the fibroblast growth factor family”, the neural rosette formation entry in the test on NPBSCs [2] (NPBSC colonies cultured with FGF2 for 2 days) is “numerous neural rosettes were formed”. Moreover, the ZO-1 expression localization result with NPBSCs [2] (immunostaining after FGF2 treatment) is reported as “re-oriented to the apical surface of the rosettes”.

B1: BMP4: activator of the BMP signalling pathway (Gene Symbol BMP4), from R&D Systems (protein, UniProt P12644 293-408, looked up)
Bone morphogenetic protein 4: SPKHHSQRARKKNKNCRRHSLYVDFSDVGWNDWIVAPPGYQAFYCHGDCPFPLADHLNSTNHAIVQTLVNSVNSSIPKACCVPTELSAISMLYLDEYDKVVLKNYQEMVVEGCGCR
With B1, the “PERIPHERIN immunostaining of neurons” value with NPBSCs [3] (8 days BMP4) is on record as “majority of the neurons were PERIPHERIN-positive”. In the test with NPBSCs [3] (8 days treatment), the effect on neurogenesis result is recorded as “did not inhibit neurogenesis”. Moreover, the “PERIPHERIN and BRN3A expression” value in the test with NPBSCs [3] (qRT-PCR, 8 days of treatment) is given as “upregulated”.
